Source: PubChem BioAssay (NCI)
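In this assay, cells in 96-well plates receive the compound at five concentrations for 48 hours. Endpoints are linearly interpolated between the surrounding concentrations. TGI: concentration producing complete growth inhibition.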

Assays:
Assay in all cases: inhibition of tumour cell growth, NCI panel, 48 h
[1] = system: NCI-H460 lung
[2] = system: SNB-19 CNS
[3] = system: PC-3 prostate
[4] = system: HOP-92 NSCLC
[5] = system: SK-MEL-28 melanoma
[6] = system: HCT-15 colon
[7] = system: EKVX NSCLC
[8] = system: OVCAR-4 ovarian
[9] = system: DU-145 prostate
[10] = system: IGROV1 ovarian
[11] = system: A549 NSCLC
[12] = system: KM12 colon
[13] = system: SNB-75 CNS
[14] = system: SF-539 CNS
[15] = system: SK-MEL-5 melanoma
[16] = system: HL-60(TB) leukemia
[17] = system: OVCAR-3 ovarian
[18] = system: HT29 colon
[19] = system: MDA-MB-435
[20] = system: ACHN renal
[21] = system: SF-268 CNS
[22] = system: OVCAR-5 ovarian
[23] = system: TK-10 renal
[24] = system: MOLT-4 leukemia
[25] = system: COLO 205 colon
[26] = system: U251 CNS
[27] = system: LOX IMVI melanoma
[28] = system: K-562 leukemia
[29] = system: BT-549 breast
[30] = system: HCC-2998 colon
[31] = system: SK-OV-3 ovarian
[32] = system: SW-620 colon
[33] = system: CCRF-CEM leukemia
[34] = system: SN12C renal
[35] = system: NCI-H522 lung
[36] = system: CAKI-1 renal
[37] = system: UO-31 renal
[38] = system: T-47D breast
[39] = system: HCT-116 colon
[40] = system: MALME-3M melanoma
[41] = system: UACC-257 melanoma
[42] = system: SF-295 CNS
[43] = system: NCI/ADR-RES ovarian
[44] = system: 786-0 renal
[45] = system: HS 578T breast
[46] = system: SR leukemia
[47] = system: M14 melanoma
[48] = system: MDA-N
[49] = system: RPMI-8226 leukemia
[50] = system: MDA-MB-231 breast
[51] = system: UACC-62 melanoma
[52] = system: HOP-62 NSCLC
[53] = system: MCF7 breast
[54] = system: NCI-H23 lung
[55] = system: OVCAR-8 ovarian
[56] = system: SK-MEL-2 melanoma
[57] = system: RXF 393 renal
[58] = system: NCI-H226 lung
[59] = system: A498 renal

For `O=C(CCN1CCCCC1)Nc1ccc2sc3ccccc3c(=O)c2n1`, which TGI [1] is on record?
The TGI was 42.1 µM.

And the TGI [2]?
Its TGI is 47.7 µM.

And the TGI [3]?
The TGI was 30.3 µM.

And the TGI [4]?
The TGI was 1.79 µM.

What about the TGI [5] of the same molecule?
Its TGI is 33.8 µM.

And the TGI [6]?
Its TGI is 46.6 µM.

And the TGI [7]?
Its TGI is 84 µM.

What about the TGI [8] of the same molecule?
Its TGI is 41.9 µM.

And the TGI [9]?
Its TGI is 46.1 µM.

What about the TGI [10] of the same molecule?
The TGI was 31.3 µM.

And the TGI [11]?
The TGI was 35.3 µM.

What about the TGI [12] of the same molecule?
Its TGI is 34 µM.

What about the TGI [13] of the same molecule?
The TGI was 23 µM.

And the TGI [14]?
The TGI was 31.6 µM.

What about the TGI [15] of the same molecule?
Its TGI is 61.9 µM.

And the TGI [16]?
The TGI was 19.2 µM.

And the TGI [17]?
The TGI was 33.7 µM.

What about the TGI [18] of the same molecule?
Its TGI is over 100 µM.

What about the TGI [19] of the same molecule?
Its TGI is 25.8 µM.

And the TGI [20]?
Its TGI is 52.7 µM.

And the TGI [21]?
The TGI was 43.3 µM.

What about the TGI [22] of the same molecule?
Its TGI is 43 µM.

And the TGI [23]?
The TGI was 46.9 µM.

And the TGI [24]?
Its TGI is 18.8 µM.

And the TGI [25]?
The TGI was 24.5 µM.

And the TGI [26]?
Its TGI is 30.3 µM.

What about the TGI [27] of the same molecule?
Its TGI is 24.8 µM.

And the TGI [28]?
Its TGI is 28.6 µM.

What about the TGI [29] of the same molecule?
The TGI was 37.2 µM.

What about the TGI [30] of the same molecule?
Its TGI is 30 µM.

What about the TGI [31] of the same molecule?
The TGI was 48.7 µM.

And the TGI [32]?
The TGI was 33.2 µM.

And the TGI [33]?
Its TGI is 54 µM.

What about the TGI [34] of the same molecule?
The TGI was 52.4 µM.

What about the TGI [35] of the same molecule?
Its TGI is 25.9 µM.

And the TGI [36]?
Its TGI is 33.6 µM.

And the TGI [37]?
The TGI was 22.1 µM.

And the TGI [38]?
The TGI was 93.6 µM.

What about the TGI [39] of the same molecule?
Its TGI is 22.9 µM.

And the TGI [40]?
The TGI was 43.6 µM.

What about the TGI [41] of the same molecule?
The TGI was 46.3 µM.

What about the TGI [42] of the same molecule?
The TGI was 45.7 µM.

What about the TGI [43] of the same molecule?
Its TGI is 73.9 µM.

And the TGI [44]?
The TGI was 28.5 µM.

And the TGI [45]?
Its TGI is 41.5 µM.

And the TGI [46]?
Its TGI is 39 µM.

And the TGI [47]?
Its TGI is 27.3 µM.

What about the TGI [48] of the same molecule?
Its TGI is 28.9 µM.

What about the TGI [49] of the same molecule?
Its TGI is 24.8 µM.

And the TGI [50]?
The TGI was 44.4 µM.

What about the TGI [51] of the same molecule?
Its TGI is 30.1 µM.

What about the TGI [52] of the same molecule?
Its TGI is 29.8 µM.

What about the TGI [53] of the same molecule?
The TGI was 57.5 µM.

Which results are given for `Nc1ccc2c(c1)S(=O)(=O)c1cc(O)ccc1O2`?
TGI [1]: > 100 µM; TGI [2]: > 100 µM; TGI [3]: > 100 µM; TGI [4]: > 100 µM; TGI [5]: > 100 µM; TGI [54]: > 100 µM; TGI [6]: > 100 µM; TGI [7]: > 100 µM; TGI [8]: > 100 µM; TGI [9]: > 100 µM; TGI [10]: > 100 µM; TGI [11]: > 100 µM; TGI [12]: > 100 µM; TGI [55]: > 100 µM; TGI [14]: > 100 µM; TGI [15]: > 100 µM; TGI [16]: > 100 µM; TGI [17]: > 100 µM; TGI [18]: > 100 µM; TGI [19]: > 100 µM; TGI [56]: > 100 µM; TGI [20]: > 100 µM; TGI [21]: > 100 µM; TGI [57]: > 100 µM; TGI [22]: > 100 µM; TGI [23]: > 100 µM; TGI [24]: > 100 µM; TGI [25]: > 100 µM; TGI [58]: > 100 µM; TGI [26]: > 100 µM; TGI [27]: > 100 µM; TGI [28]: > 100 µM; TGI [29]: > 100 µM; TGI [30]: > 100 µM; TGI [31]: > 100 µM; TGI [32]: > 100 µM; TGI [33]: > 100 µM; TGI [34]: > 100 µM; TGI [59]: > 100 µM; TGI [35]: > 100 µM; TGI [36]: > 100 µM; TGI [37]: > 100 µM; TGI [38]: > 100 µM; TGI [39]: > 100 µM; TGI [41]: > 100 µM; TGI [42]: > 100 µM; TGI [43]: > 100 µM; TGI [44]: > 100 µM; TGI [45]: > 100 µM; TGI [46]: > 100 µM; TGI [47]: > 100 µM; TGI [48]: > 100 µM; TGI [50]: > 100 µM; TGI [51]: > 100 µM; TGI [52]: > 100 µM; TGI [53]: > 100 µM

`COC(=O)C(CCC1C=CN(S(=O)(=O)c2ccc(C)cc2)C1)N=Cc1ccccc1` (configuration not stated) was tested. Which TGI [1] did it give?
The TGI was over 100 µM.

What about the TGI [2] of the same molecule?
Its TGI is over 100 µM.

And the TGI [3]?
The TGI was over 100 µM.

And the TGI [4]?
Its TGI is over 100 µM.

And the TGI [5]?
The TGI was over 100 µM.

And the TGI [54]?
The TGI was 63 µM.

What about the TGI [6] of the same molecule?
Its TGI is over 100 µM.

What about the TGI [7] of the same molecule?
Its TGI is over 100 µM.

What about the TGI [8] of the same molecule?
Its TGI is over 100 µM.

What about the TGI [9] of the same molecule?
Its TGI is over 100 µM.

And the TGI [10]?
Its TGI is over 100 µM.

And the TGI [11]?
Its TGI is over 100 µM.

What about the TGI [12] of the same molecule?
The TGI was over 100 µM.

What about the TGI [55] of the same molecule?
Its TGI is over 100 µM.

What about the TGI [13] of the same molecule?
Its TGI is over 100 µM.

What about the TGI [14] of the same molecule?
Its TGI is over 100 µM.

What about the TGI [15] of the same molecule?
The TGI was 53.9 µM.

What about the TGI [16] of the same molecule?
The TGI was 22.1 µM.

What about the TGI [17] of the same molecule?
The TGI was over 100 µM.

And the TGI [18]?
The TGI was over 100 µM.

And the TGI [19]?
Its TGI is over 100 µM.

And the TGI [56]?
Its TGI is 49.6 µM.

What about the TGI [20] of the same molecule?
The TGI was over 100 µM.

And the TGI [21]?
Its TGI is over 100 µM.

What about the TGI [57] of the same molecule?
Its TGI is over 100 µM.

What about the TGI [22] of the same molecule?
Its TGI is over 100 µM.

And the TGI [23]?
Its TGI is over 100 µM.

What about the TGI [24] of the same molecule?
The TGI was over 100 µM.

And the TGI [25]?
Its TGI is 41.1 µM.

And the TGI [58]?
The TGI was over 100 µM.

And the TGI [26]?
The TGI was over 100 µM.

And the TGI [27]?
Its TGI is over 100 µM.

And the TGI [28]?
Its TGI is over 100 µM.

What about the TGI [29] of the same molecule?
The TGI was over 100 µM.

What about the TGI [30] of the same molecule?
Its TGI is over 100 µM.

What about the TGI [31] of the same molecule?
The TGI was over 100 µM.

And the TGI [32]?
The TGI was over 100 µM.

What about the TGI [33] of the same molecule?
The TGI was over 100 µM.

And the TGI [34]?
Its TGI is over 100 µM.

And the TGI [59]?
The TGI was over 100 µM.

What about the TGI [35] of the same molecule?
Its TGI is over 100 µM.

What about the TGI [36] of the same molecule?
The TGI was over 100 µM.

And the TGI [37]?
Its TGI is over 100 µM.

And the TGI [38]?
Its TGI is over 100 µM.

What about the TGI [39] of the same molecule?
Its TGI is over 100 µM.

What about the TGI [41] of the same molecule?
Its TGI is over 100 µM.

And the TGI [42]?
Its TGI is over 100 µM.

And the TGI [43]?
Its TGI is over 100 µM.

What about the TGI [44] of the same molecule?
The TGI was over 100 µM.

And the TGI [45]?
Its TGI is over 100 µM.

And the TGI [46]?
Its TGI is 61.1 µM.

And the TGI [47]?
The TGI was over 100 µM.

And the TGI [48]?
The TGI was over 100 µM.

What about the TGI [49] of the same molecule?
The TGI was 82 µM.

And the TGI [50]?
The TGI was over 100 µM.

And the TGI [51]?
Its TGI is over 100 µM.

What about the TGI [52] of the same molecule?
Its TGI is over 100 µM.

What about the TGI [53] of the same molecule?
Its TGI is over 100 µM.
